# According to patent publication US10918626B2, “Method for improving pharmacokinetics” (Roche Palo Alto LLC, priority 2009, dated 2021):
# Where two headings read alike, the source gives them in different places.
# Experiments:
# [1] = target: T1, NS3/4A protease (Hepatitis C virus genotype 1a, UniProt P27958); assay: NS3/4A proteolysis inhibition; format: biochemical; conditions: read-out: 50% inhibitory concentration (IC50), NS3/4A proteolysis
# T1 construct: a serine protease encoded in the NS3 region
# T1 sequence (P27958 1658-1711): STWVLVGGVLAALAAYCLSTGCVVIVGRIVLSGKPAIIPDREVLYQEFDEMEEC
# T1 sequence (P27958 1027-1657): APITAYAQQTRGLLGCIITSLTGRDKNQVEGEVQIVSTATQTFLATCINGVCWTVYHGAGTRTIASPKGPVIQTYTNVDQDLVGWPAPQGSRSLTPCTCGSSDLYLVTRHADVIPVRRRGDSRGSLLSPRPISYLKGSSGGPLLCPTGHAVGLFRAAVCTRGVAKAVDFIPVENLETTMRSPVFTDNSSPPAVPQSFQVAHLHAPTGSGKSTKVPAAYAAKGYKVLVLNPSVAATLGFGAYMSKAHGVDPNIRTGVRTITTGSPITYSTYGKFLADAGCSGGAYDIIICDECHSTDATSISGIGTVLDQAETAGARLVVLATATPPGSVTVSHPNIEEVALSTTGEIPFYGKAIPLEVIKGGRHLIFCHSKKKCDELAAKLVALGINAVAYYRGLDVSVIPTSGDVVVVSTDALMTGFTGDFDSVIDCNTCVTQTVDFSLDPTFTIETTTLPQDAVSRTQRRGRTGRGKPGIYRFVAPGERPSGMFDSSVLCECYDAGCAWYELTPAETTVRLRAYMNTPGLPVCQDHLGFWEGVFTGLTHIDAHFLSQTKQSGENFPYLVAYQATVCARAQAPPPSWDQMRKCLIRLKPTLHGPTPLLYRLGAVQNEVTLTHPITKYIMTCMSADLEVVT
# [2] = test system: genotype 1 HCV replicon; assay: cell-based potency assay employing a genotype 1 HCV replicon; conditions: Hepatitis C virus
# [3] = test system: CYP isozymes; assay: cytochrome P450 phenotyping using chemical inhibitors; format: in vitro ADME
# Description: (§1) Therefore, a cytochrome P450 monooxygenase inhibitor in an amount effective to inhibit metabolism of the protease inhibitor could increase the bioavailability of R7227 compared to administration in the absence of the CYP inhibitor.
# [4] = target: recombinant CYPs (Homo sapiens, UniProt P08684); assay: metabolism by recombinant CYPs; format: in vitro ADME
# Chain of recombinant CYPs (P08684 whole entry): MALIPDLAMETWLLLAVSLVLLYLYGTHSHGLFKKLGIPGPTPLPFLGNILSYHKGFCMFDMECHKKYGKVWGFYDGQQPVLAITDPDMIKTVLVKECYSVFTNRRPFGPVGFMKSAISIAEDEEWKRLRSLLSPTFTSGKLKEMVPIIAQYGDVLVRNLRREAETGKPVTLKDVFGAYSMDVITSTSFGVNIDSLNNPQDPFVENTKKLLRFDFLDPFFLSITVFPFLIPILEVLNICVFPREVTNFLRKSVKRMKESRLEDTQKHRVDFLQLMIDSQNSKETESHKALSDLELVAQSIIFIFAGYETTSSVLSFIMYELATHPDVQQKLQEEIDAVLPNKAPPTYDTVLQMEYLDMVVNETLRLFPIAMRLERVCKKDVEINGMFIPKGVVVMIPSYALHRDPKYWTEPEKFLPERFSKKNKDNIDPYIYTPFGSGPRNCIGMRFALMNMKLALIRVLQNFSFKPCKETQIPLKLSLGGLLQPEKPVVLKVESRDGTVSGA
# Description: as §1
# [5] = Pharmacokinetic enhancement of R7227 by ritonavir in healthy adults; format: in vivo, human; conditions: for concentration at 12 h / Cmax / AUC(0-inf): human, plasma; for concentration at 12 h: read-out: C12 h, GLSM; for Cmax / AUC(0-inf): N 12
# Experimental: Subjects were screened for participation in this study within 21 days before dosing. The study enrolled 14 healthy volunteers (n=14 per group). The dosing schedule is illustrated below: [table] […] was formulated into clear size 10 oval soft gelatin capsules for oral administration at a strength of 100 mg per capsule (anhydrous free acid equivalent). The capsule fill solution consists of […]-001, polyethylene glycol PEG400 (Macrogol 400), and butylated hydroxytoluene (BHT). All excipients are compendial grade (NF or EP). Gelatin Type 195 (NF, EP) is used as the bulk gel mass for the capsule shell, with small amounts of sorbitol liquid 85/70/00 (NF, EP) and water (USP) used as plasticizers. All study medications were with a meal. […] was administered orally as a single dose of a 100 mg soft gel capsule on days 1, 3 and 12. […] Blood samples (5 mL) were collected to determine plasma concentrations of […] (and metabolites when assays were available) according to the following schedule Day 1, PK samples (5 mL) were be collected before […] dosing (predose) and at 0.5, 1, 1.5, 2, 2.5, 3, 3.5, 4, 6, 8, 12, and 24 hours after […] dosing; Days 3 and 12, PK samples (5 mL) were collected before […] dosing (predose) and at 0.5, 1, 1.5, 2, 2.5, 3, 3.5, 4, 6, 8, 12, 24, 36, and 48 hours after […] dosing. Primary PK parameters of […] that were determined are Cmax and AUC0→∞. Secondary PK parameters of […] that were measured include Tmax and AUC0→last, CL/F, t1/2, C12 hr and C24 h. Analysis of variance (ANOVA) was applied to the log-transformed primary pharmacokinetic parameters. Two-sided 90% confidence intervals for the ratios of the geometric means of the primary parameters (AUC0→∞ and Cmax of […]) were derived for the following comparisons: […] Analysis of variance (ANOVA) was used to analyze all primary study parameters using the following model: Yij=μ+τi+sj+εij where Yij denotes the PK parameter to be analyzed, μ denotes the general mean of the transformed variable, τi, the fixed effect of treatment; sj the random effect of subject; εij (error). The random deviations εij are assumed to be independent and normally distributed with zero mean and common variance σ^2. The group comparisons τ […]+Ritonavir-τ[…], the residual variance σ^2, and the 90% confidence limits for the group comparisons were estimated from the ANOVA model. For log-transformed variables (AUC0→∞ and Cmax), the ratio of true group means and the confidence limits for the corresponding ratio of means of the untransformed variables will be calculated by exponentiation of the least squares means differences and the confidence limits for the transformed values, respectively.
# [6] = SAD study in healthy volunteers; format: in vivo, human
# Description: (A. A. Mathias et al., Clin. Pharmacol. Ther. 2009 85(1)64-70).
# [7] = test system: HCV; conditions: monotherapy; cited from earlier work
# [8] = po, 100 mg, Day 1 (alone), R7227 100 mg single oral dose
# [9] = multiple doses of ritonavir 100 mg every 12 hours
compound,measurement,setting,value
CC(C)(C)OC(=O)N[C@H]1CCCCC/C=C\[C@@H]2C[C@@]2(C(=O)NS(=O)(=O)C2CC2)NC(=O)[C@@H]2C[C@@H](OC(=O)N3Cc4cccc(F)c4C3)CN2C1=O [R7227],IC50,[1],≤ 0.225 nM
same,IC50,[2],1.77 nM
same,CYP isozymes participating in metabolism,[3],"multiple CYP isozymes including 3A4, 2C19, 1A2, 2D6, and 2C9 participate in the metabolism"
same,metabolism by recombinant CYPs,[4],only CYP3A4 metabolized R7227 to an extent that could influence the pharmacokinetics
same,"AUC0→∞, ratio of GLSM (90% CI)",[5]; Day 3 vs Day 1,"5.70 (4.07, 7.99)"
same,"Cmax, ratio of GLSM (90% CI)",[5]; Day 3 vs Day 1,"3.14 (1.87, 5.25)"
same,"C12 h, ratio of GLSM (90% CI)","[5]; Day 3 vs Day 1, N 8, non-missing non-BLQ data","50.6 (25.6, 100)"
same,"C12 h, ratio of GLSM (90% CI)","[5]; Day 3 vs Day 1, N 12, includes extrapolated day 1 values","65.2 (34.8, 122)"
same,"AUC0→∞, ratio of GLSM (90% CI)",[5]; Day 12 vs Day 1,"5.50 (4.05, 7.48)"
same,"Cmax, ratio of GLSM (90% CI)",[5]; Day 12 vs Day 1,"3.25 (2.12, 4.96)"
same,"C12 h, ratio of GLSM (90% CI)","[5]; Day 12 vs Day 1, N 8, non-missing non-BLQ data","26.9 (17.7, 41.0)"
same,"C12 h, ratio of GLSM (90% CI)","[5]; Day 12 vs Day 1, N 12, includes extrapolated day 1 values","42.4 (25.7, 70.0)"
same,concentration at 12 h,"[5]; oral, 100 mg, Day 1 (alone), N 8, non-missing non-BLQ data from all three treatment days",0.02 ng/mL
same,concentration at 12 h,"[5]; oral, 100 mg, Day 1 (alone), N 12, includes extrapolated C12 h values from 4 subjects with BLQ values on day 1",0.01 ng/mL
same,concentration at 12 h,"[5]; oral, Day 3 (with ritonavir single dose), N 8, non-missing non-BLQ data",1 ng/mL
same,Cmax,"[5]; oral, Day 3 (with ritonavir single dose)",26.4 ng/mL
same,concentration at 12 h,"[5]; oral, Day 3 (with ritonavir single dose), N 12 (set including extrapolated day 1 values)",0.55 ng/mL
same,concentration at 12 h,"[5]; oral, Day 12 (with ritonavir multiple dose), N 8, non-missing non-BLQ data",0.53 ng/mL
same,Cmax,"[5]; oral, Day 12 (with ritonavir multiple dose)",27.3 ng/mL
same,concentration at 12 h,"[5]; oral, Day 12 (with ritonavir multiple dose), N 12 (set including extrapolated day 1 values)",0.36 ng/mL
same,AUC(0-inf),[5]; [8],14.4 ng·h/mL
same,Cmax,[5]; [8],8.4 ng/mL
same,AUC(0-inf),"[5]; po, 100 mg, Day 3 (with ritonavir single dose), R7227 100 mg oral",82 ng·h/mL
same,AUC(0-inf),"[5]; po, 100 mg, Day 12 (with ritonavir multiple dose), R7227 100 mg oral",79.4 ng·h/mL
same,increase of R7227 AUC0→∞,[5]; [9],approximately 5.5 fold
same,increase of R7227 Cmax,[5]; [9],~3.25 fold
same,highest safe and tolerable dose,[6],1600 mg
"NC(=O)c1ncn([C@@H]2O[C@H](CO)[C@@H](O)[C@H]2O)n1 [ribavirin, 1-((2R,3R,4S,5R)-3,4-dihydroxy-5-hydroxymethyl-tetrahydro-furan-2-yl)-1H-[1,2,4]triazole-3-carboxylic acid amide]",patients with serum amino transferase levels reduced to normal,[7],40%
